The results in this text go back to US8987321B2, “Lisofylline analogs and methods for use” (University of Virginia Patent Foundation, priority 2005, dated 2015).

The target of data set [1] is T1, rCYP 1A2 (Homo sapiens, UniProt P05177).
T1 sequence (P05177 1-516): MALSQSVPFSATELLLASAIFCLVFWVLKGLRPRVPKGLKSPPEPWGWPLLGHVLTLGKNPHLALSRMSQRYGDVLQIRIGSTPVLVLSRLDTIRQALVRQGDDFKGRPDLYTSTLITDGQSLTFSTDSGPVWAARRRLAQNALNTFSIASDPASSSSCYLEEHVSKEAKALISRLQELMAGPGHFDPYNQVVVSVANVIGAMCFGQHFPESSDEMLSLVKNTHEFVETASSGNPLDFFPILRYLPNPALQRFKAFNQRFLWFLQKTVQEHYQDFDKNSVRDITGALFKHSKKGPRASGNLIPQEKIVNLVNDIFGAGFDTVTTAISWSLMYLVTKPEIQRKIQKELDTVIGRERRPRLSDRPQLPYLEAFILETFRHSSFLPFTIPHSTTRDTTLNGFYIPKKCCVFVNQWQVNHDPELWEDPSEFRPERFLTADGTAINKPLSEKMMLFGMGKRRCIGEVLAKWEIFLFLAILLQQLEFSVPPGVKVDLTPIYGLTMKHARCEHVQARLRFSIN
Put plainly: rCYP450 inhibition, 1A2. More on the design: concentration or dose not given beside the values. Format: in vitro ADME. The method, then:
(§1) Further evaluations were performed for some of the LSF analogs in MDS assays, solubility, oral bioavailability, and stability (see Table 1). Analogs having greater than 50% inhibitory activity were considered to have high activity; analogs having from 20-49% inhibitory activity were considered to have medium activity; and analogs having less than 20 inhibitory activity were considered to have low activity

The target of data set [2] is rCYP 2C9 (Homo sapiens, UniProt P11712). The experiment in a line: rCYP450 inhibition, 2C9. More on the design: concentration or dose not given beside the values. In kind it is in vitro ADME. The procedure: as §1
The target in data set [3] is rCYP 2C19 (Homo sapiens, UniProt P33261). The experiment in a line: rCYP450 inhibition, 2C19. In kind it is in vitro ADME. More on the design: concentration or dose not given beside the values. The method, then: as §1
The target in data set [4] is rCYP 2D6 (Homo sapiens, UniProt P10635). Put plainly: rCYP450 inhibition, 2D6. In kind it is in vitro ADME. More on the design: concentration or dose not given beside the values. The procedure:
as §1

Data set [5] has as its target rCYP 3A4 (Homo sapiens, UniProt P08684). Put plainly: rCYP450 inhibition, 3A4. In kind it is in vitro ADME. More on the design: concentration or dose not given beside the values. The procedure:
as §1

A short description of data set [6]: Metabolic stability. In kind it is in vitro ADME. The method, then:
Further evaluations were performed for some of the LSF analogs in MDS assays, solubility, oral bioavailability, and stability (see Table 1).

Data set [7] deals with cytochrome p450. The experiment in a line: cytochrome p450 inhibition, overall statement. In kind it is in vitro ADME. An excerpt: Analogs having greater than 50% inhibitory activity were considered to have high activity; analogs having from 20-49% inhibitory activity were considered to have medium activity; and analogs having less than 20 inhibitory activity were considered to have low activity

Data set [8] relates to human islets. The experiment in a line: Insulin secretion in human islets exposed to cytokines. Format: cell-based. Particulars: human islet, in the presence of inflammatory cytokines. The procedure: (§2) Four compounds (CPW7, CPW8, CPW11, and CPW12) were also evaluated on human islets for the induction of insulin secretion, intracellular ATP concentrations and the effect of reducing cell death exposed to cytokines (combination of human IL-1β, IFN-γ, and TNF-α). The results are illustrated FIGS. 7A-7D.

Data set [9] concerns human islets. The experiment in a line: Intracellular ATP concentrations (mitochondrial function) in human islets. Format: cell-based. The settings on record: human β-cells. The method, then: as §2
Data set [10] concerns human islets. The experiment in a line: Cell death of human islets exposed to cytokines. In kind it is cell-based. The settings on record: human β-cells. The procedure:
as §2

For data set [11], the system named is INS-1 cells. Put plainly: Protection of INS-1 cells from cytokine-induced cell death. In kind it is cell-based, rat. The procedure:
The effects of LSF analogs on β-cells in the […] insulin-secreting INS-1 cell line were investigated. Cells were maintained in RPMI 1640 medium (Life Technologies, Inc., Gaithersburg, Md.) supplemented with 10% heat-inactivated FBS, 10 mm HEPES, 200 μm L-glutamine, 1 mm sodium pyruvate, […] 2-mercaptoethanol, 50 U/ml penicillin, and 50 μg/ml streptomycin at pH 7.4. The cells were cultured at 37° C. in a humidified incubator supplied with 5% carbon dioxide. Fresh medium was replaced every 2 days. The cells were plated at a density of […]. Culture vessels were coated with poly-D-lysine and gelatin (Sigma, St. Louis, Mo.) to retain detached and dead cells so that seeding cell numbers reflect the actual cell numbers after all treatment conditions. INS-1 cells were treated with the combination of recombinant mouse IL-1β (5 ng/ml), IFNγ (100 ng/ml), and TNFα (10 ng/ml; R&D Systems, Inc., Minneapolis, Minn.) suspended in complete RPMI medium. LSF (provided by Cell Therapeutics, Inc., Seattle, Wash.) and analogs were added simultaneously with the cytokines in complete RPMI medium. All treatments were performed for 18 hours.
INS-1 cells were treated with a combination of recombinant IL-1β, INFγ, and TNFα with 10^−5-10^3 μM LSF and its analogs. […] There was no further increase in β-cell protection when the LSF concentration was increased from 10^−2 to 10^2 μM. […] No further increases in β-cell protection were observed when analog concentrations were increased.
The effects of LSF analogs on insulin secretion in INS-1 cells with and without inflammatory cytokines. β-Cells were treated with apoptosis detecting dye for 2-3 hours at room temperature. Apoptotic cells were recognized with purple-red color under a microscope. After washing to eliminate free dye and adding dye release reagent, color density was quantified by reading at OD 450 nm. […] Insulin secreted into the supernatant was measured by RIA with mouse insulin as a standard. […]

Sequence of rCYP 2C9 (P11712 whole entry): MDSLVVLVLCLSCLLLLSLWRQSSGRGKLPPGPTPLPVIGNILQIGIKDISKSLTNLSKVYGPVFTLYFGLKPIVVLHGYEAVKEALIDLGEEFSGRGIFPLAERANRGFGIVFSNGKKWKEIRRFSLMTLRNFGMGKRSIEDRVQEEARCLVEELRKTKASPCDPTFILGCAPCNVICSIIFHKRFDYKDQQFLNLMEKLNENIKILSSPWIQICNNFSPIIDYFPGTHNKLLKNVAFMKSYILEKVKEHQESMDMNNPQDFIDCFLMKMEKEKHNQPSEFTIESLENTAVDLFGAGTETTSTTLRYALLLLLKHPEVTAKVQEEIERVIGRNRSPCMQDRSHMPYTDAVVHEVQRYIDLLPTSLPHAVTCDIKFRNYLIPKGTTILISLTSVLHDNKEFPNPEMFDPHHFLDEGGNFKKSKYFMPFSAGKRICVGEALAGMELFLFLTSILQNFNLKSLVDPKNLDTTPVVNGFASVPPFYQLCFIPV
Sequence of rCYP 2D6 (P10635 whole entry): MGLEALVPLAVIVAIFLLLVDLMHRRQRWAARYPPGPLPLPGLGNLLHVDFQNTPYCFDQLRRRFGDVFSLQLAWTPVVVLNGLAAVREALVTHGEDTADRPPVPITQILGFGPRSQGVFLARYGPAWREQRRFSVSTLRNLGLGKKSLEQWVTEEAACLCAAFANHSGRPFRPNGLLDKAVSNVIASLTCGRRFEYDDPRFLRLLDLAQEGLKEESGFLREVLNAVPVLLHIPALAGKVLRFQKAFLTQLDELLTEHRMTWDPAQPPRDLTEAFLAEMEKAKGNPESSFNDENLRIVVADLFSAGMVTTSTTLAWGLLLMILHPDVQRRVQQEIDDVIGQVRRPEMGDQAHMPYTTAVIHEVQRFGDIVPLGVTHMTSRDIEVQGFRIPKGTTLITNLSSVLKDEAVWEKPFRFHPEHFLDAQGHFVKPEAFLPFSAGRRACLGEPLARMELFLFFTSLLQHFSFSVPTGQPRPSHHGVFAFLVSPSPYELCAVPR
Sequence of rCYP 3A4 (P08684 whole entry): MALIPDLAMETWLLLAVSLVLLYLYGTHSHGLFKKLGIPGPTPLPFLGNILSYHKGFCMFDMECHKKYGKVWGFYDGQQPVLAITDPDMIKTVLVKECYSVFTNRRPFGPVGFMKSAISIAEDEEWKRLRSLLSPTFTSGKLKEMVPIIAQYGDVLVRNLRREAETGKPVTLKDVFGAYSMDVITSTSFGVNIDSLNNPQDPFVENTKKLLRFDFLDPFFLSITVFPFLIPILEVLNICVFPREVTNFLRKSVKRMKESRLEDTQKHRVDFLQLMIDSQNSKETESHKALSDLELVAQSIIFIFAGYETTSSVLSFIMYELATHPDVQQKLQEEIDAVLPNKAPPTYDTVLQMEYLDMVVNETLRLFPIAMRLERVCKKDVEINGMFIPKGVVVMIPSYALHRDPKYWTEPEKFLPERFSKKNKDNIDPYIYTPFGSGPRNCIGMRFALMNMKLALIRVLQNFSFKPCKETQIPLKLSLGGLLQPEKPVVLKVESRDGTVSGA
Sequence of rCYP 2C19 (P33261 whole entry): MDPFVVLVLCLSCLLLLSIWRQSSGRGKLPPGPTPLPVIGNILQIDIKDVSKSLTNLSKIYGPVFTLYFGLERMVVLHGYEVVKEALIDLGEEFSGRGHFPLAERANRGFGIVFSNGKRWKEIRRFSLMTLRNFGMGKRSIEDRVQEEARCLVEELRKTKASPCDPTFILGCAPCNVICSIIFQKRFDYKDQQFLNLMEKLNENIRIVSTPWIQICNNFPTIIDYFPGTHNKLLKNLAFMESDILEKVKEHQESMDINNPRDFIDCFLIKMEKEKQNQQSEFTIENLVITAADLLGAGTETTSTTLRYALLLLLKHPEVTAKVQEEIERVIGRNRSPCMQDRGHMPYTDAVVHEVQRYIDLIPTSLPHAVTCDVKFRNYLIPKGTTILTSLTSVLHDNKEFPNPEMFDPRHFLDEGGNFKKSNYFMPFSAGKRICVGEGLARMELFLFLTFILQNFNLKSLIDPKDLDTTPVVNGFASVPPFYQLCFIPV

With `C[C@@H](O)CCCCOc1n[nH]c(=O)c2ccccc12` [CPW12], the “rCYP % Inhibition 1A2” value in data set [1] was 18%. For the same compound, in data set [2], the “rCYP % Inhibition 2C9” value stood at 30%. For the same compound, the “rCYP % Inhibition 2C19” value in data set [3] stood at 30%. In addition, the “rCYP % Inhibition 2D6” value in [4] was determined as 12%. Besides, the “rCYP % Inhibition 3A4” value in data set [5] amounted to 4%. Moreover, in data set [6], the “Metabolic Stability Percent Remaining” value amounted to 75%. Besides, the stability entry in data set [6] (in words) was “acceptable”. The “cytochrome p450 inhibition” value in data set [7] is “low (less than 20 inhibitory activity)”. Moreover, in [8], the insulin secretion entry is listed as “positive effects”. The maintaining mitochondrial function result in [9] was “beneficial effect”. Moreover, the maintaining cell viability entry in data set [10] is “beneficial effect”. For the same compound, the “β-cell protective activity compared with LSF” value in [11] (concentration of 10^−2 μM) is recorded as “comparative activity with LSF”. The “protective effects on β-cells” value in data set [11] (cytokine-induced cell death) was “effective at low concentrations”.
